Literature values in patent publication US20240115494A1, “ENCAPSULATED COMPOSITIONS AND METHOD OF USE - AFFECTING SATIETY” (Nutragenom, LLC, priority 2021, published 2024).

Conditions: 100% glycerol, quoted for comparison

Question: With `OCC(O)CO` [100% glycerol, glycerol] as the compound, how does the “Viscosity (comparison value)” value read?
Answer: 4,000 mPa·s
